Measurements from US9012443B2 (Amgen Inc., priority 2011, dated 2015).
Where two headings read alike, the source gives them in different places.

Columns and labels:
Type in all cases: cell-based
Nav 1.7 [1] = target: T1, Nav 1.7 (Homo sapiens (Human), UniProt Q15858); test: Nav 1.7 IWQ in vitro assay (IonWorks Quattro population patch-clamp); conditions: 293 cells stably transfected with Nav 1.7
Outline: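 HEK293 cells stably expressing Nav 1.7, recorded by automated population patch-clamp with a train of depolarizations producing increasing inactivation. Single compound concentration added during 3–8 min unclamped period, then same protocol repeated. Leak-corrected current at 26th pulse to −20 mV gave percent block (duplicate); IC50 fitted from concentration–block curves.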

Nav 1.5 = Nav 1.5 (Homo sapiens (Human), UniProt Q14524); test: Nav 1.5 in vitro PX assay (PatchXpress whole cell voltage clamp)
Nav 1.5, sequence (Q14524 whole entry): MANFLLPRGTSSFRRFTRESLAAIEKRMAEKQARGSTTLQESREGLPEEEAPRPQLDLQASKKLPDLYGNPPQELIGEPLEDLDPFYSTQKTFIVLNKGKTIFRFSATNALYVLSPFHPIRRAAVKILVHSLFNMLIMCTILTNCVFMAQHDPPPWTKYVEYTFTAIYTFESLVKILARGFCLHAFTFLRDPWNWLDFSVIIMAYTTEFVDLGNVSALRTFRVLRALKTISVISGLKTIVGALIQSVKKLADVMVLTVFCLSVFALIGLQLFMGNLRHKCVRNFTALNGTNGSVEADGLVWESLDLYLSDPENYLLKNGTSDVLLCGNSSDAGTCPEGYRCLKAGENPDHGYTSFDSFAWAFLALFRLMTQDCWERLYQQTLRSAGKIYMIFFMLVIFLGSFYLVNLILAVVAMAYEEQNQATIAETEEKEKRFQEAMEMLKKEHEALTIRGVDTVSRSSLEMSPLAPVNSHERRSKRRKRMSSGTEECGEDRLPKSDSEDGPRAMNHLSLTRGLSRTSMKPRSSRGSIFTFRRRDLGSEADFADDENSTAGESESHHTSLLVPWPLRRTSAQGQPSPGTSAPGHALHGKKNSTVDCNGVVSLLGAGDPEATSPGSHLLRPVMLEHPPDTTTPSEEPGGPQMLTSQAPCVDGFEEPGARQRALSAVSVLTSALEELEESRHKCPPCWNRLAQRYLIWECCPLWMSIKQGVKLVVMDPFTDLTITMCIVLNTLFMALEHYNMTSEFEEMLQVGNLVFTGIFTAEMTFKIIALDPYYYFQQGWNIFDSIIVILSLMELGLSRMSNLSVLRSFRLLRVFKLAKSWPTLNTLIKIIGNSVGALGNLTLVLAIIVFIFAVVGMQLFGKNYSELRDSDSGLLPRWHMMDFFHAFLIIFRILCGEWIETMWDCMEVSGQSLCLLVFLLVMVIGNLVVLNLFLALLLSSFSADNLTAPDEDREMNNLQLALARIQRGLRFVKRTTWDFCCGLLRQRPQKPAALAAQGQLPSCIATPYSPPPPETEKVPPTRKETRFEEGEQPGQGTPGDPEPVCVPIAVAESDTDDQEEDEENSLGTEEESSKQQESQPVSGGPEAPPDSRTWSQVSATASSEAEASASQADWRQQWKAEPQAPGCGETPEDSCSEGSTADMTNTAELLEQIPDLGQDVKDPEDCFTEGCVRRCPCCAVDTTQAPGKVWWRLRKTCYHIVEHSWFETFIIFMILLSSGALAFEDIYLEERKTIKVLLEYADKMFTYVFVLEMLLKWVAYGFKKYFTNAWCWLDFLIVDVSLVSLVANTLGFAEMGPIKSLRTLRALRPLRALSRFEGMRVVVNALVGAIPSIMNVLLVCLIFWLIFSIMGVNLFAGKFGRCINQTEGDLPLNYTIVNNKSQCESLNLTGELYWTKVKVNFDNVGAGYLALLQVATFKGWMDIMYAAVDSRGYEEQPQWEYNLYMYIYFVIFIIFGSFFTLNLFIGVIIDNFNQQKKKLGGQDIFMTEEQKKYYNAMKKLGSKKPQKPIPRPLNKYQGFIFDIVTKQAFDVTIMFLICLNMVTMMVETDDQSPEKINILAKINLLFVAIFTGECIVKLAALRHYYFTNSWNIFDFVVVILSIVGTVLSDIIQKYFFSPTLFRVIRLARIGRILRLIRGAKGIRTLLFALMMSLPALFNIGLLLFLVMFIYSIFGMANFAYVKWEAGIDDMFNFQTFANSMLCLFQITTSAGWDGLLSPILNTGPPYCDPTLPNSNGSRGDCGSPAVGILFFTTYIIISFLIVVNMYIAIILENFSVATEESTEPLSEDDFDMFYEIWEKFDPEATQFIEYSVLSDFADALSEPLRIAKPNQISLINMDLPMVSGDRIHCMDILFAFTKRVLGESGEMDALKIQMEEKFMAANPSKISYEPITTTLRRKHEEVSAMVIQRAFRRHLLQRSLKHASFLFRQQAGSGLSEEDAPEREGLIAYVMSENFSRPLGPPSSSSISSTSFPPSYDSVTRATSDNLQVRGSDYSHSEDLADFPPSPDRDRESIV
Outline: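 HEK293 cells stably expressing Nav 1.5, whole-cell voltage clamp held at −50 mV; 20 msec test pulses to 0 mV at 0.1 Hz, each preceded by a step to −120 mV.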

Nav 1.7 [2] = target: T1, Nav 1.7; test: Nav 1.7 in vitro PX assay (PatchXpress whole cell voltage clamp); conditions: 293 cells, human Nav1.7, partially inactivated state; read-out: Nav1.7 PX IC50 IP
Outline: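 HEK293 cells stably expressing human Nav1.7, whole-cell voltage clamp on PatchXpress, held at potential giving 20–50% inactivation; current elicited by 20 msec pulse to −10 mV.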

[3] = first part of table, read-out: Nav 1.7 IWQ IC50
[4] = 293 cells stably transfected with Nav 1.5, first part of table, read-out: Nav 1.5 PX IC50
[5] = second part of table, read-out: Nav1.7 IWQ IC50 IP
[6] = 293 cells stably transfected with Nav 1.5, second part of table, read-out: Nav1.5 PX IC50

T1 sequence (Q15858 whole entry): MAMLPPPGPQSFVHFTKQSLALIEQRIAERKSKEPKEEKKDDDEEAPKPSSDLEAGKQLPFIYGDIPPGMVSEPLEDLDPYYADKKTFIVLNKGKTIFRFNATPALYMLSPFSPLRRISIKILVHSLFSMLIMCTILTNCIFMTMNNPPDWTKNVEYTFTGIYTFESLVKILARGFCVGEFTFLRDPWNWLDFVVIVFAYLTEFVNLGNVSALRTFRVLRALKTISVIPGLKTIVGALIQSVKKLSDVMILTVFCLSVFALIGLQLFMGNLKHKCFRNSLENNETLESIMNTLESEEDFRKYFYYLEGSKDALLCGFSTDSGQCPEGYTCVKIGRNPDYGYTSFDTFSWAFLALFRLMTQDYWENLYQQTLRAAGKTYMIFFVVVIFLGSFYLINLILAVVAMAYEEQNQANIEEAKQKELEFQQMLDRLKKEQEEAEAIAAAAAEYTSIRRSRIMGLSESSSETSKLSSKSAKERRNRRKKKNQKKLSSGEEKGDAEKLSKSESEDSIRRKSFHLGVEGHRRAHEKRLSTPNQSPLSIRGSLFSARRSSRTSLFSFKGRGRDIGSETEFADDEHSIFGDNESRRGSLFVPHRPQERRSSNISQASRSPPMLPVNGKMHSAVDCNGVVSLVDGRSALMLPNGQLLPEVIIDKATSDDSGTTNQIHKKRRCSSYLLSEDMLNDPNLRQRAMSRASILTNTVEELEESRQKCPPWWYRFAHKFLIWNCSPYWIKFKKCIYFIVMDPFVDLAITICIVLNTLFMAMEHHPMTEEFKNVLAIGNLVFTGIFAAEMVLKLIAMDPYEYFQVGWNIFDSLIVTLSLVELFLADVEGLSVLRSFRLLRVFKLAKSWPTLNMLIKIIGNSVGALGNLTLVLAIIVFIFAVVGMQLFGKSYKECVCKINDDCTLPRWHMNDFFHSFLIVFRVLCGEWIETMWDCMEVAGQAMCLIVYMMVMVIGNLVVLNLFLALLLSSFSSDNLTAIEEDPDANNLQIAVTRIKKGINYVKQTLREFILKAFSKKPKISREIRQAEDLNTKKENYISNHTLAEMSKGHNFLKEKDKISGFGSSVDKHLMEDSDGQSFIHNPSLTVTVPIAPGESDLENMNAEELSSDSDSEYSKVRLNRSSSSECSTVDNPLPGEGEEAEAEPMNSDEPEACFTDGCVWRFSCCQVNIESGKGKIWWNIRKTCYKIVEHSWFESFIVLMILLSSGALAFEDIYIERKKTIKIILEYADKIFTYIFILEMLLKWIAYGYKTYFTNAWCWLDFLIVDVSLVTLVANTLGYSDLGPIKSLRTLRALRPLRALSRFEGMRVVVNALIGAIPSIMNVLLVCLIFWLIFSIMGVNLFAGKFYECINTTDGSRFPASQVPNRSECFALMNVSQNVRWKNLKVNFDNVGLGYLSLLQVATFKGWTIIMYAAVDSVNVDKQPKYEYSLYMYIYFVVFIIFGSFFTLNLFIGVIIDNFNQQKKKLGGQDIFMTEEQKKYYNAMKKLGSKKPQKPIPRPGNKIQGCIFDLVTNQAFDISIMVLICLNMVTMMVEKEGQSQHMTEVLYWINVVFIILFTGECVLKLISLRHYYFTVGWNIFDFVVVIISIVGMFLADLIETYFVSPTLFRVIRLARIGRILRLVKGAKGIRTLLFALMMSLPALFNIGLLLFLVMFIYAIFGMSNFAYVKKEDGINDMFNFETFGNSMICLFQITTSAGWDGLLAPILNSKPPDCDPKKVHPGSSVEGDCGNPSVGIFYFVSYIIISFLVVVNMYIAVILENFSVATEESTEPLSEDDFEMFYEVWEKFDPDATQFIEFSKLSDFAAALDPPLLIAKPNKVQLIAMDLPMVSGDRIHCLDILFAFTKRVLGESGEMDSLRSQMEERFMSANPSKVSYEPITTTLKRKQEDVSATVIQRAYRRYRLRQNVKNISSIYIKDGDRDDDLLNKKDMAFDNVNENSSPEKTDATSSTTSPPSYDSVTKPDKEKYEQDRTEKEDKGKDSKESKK

IC50 (Nav 1.7 [1]; [3]) [nM]	IC50 (Nav 1.7 [1]; [5]) [nM]	IC50 (Nav 1.7 [2]) [nM]	Structure (SMILES)	IC50 (Nav 1.5; [4]) [nM]	IC50 (Nav 1.5) [nM]	IC50 (Nav 1.5; [6]) [nM]
1800	–	–	O=S(=O)(Nc1ncns1)c1ccc2c(N3CCOC(c4ccccc4)C3)cccc2c1 (single isomer, unassigned) [14 (isomer 2), 5-(2-phenylmorpholino)-N-(1,2,4-thiadiazol-5-yl)naphthalene-2-sulfonamide]	> 30000	–	–
30	–	–	O=S(=O)(Nc1ncns1)c1ccc2c(-c3ccc(C(F)(F)F)cc3-c3ccncc3)cccc2c1 [Example 2]	> 30000	–	–
90	–	–	O=S(=O)(Nc1ncns1)c1ccc2c(-c3ccc(F)cc3Br)cccc2c1 [Example 3]	24200	–	–
900	–	–	O=S(=O)(Nc1ncns1)c1ccc2c(-c3ccc(OC(F)(F)F)cc3Cl)cccc2c1 [Example 4]	10900	–	–
170	–	–	O=S(=O)(Nc1ncns1)c1ccc2c(-c3ccc(F)cc3Cl)cccc2c1 [Example 5]	23800	–	–
200	–	–	O=S(=O)(Nc1ncns1)c1ccc2c(-c3ccccc3Cl)cccc2c1 [Example 8]	21300	–	–
460	–	–	O=S(=O)(Nc1ncns1)c1ccc2c(-c3ccccc3)cccc2c1 [Example 9]	23800	–	–
50	–	–	CCOc1cc(C(F)(F)F)ccc1-c1cccc2cc(S(=O)(=O)Nc3ncns3)ccc12 [Example 10]	6680	–	–
80	–	–	Cc1cc(C(F)(F)F)ccc1-c1cccc2cc(S(=O)(=O)Nc3ncns3)ccc12 [Example 11]	5070	–	–
10	–	–	COc1cc(C(F)(F)F)ccc1-c1cccc2cc(S(=O)(=O)Nc3ncns3)ccc12 [Example 12]	11600	–	–
40	–	–	N#Cc1cc(C(F)(F)F)ccc1-c1cccc2cc(S(=O)(=O)Nc3ncns3)ccc12 [Example 22]	> 30000	–	–
110	–	–	O=S(=O)(Nc1ncns1)c1ccc2c(-c3ccc(C(F)(F)F)cc3Br)cccc2c1 [Example 23]	20700	–	–
50	–	–	Cn1nccc1-c1cc(Cl)ccc1-c1cccc2cc(S(=O)(=O)Nc3ncns3)ccc12 [Example 25]	> 30000	–	–
20	–	–	O=S(=O)(Nc1ncns1)c1ccc2c(-c3ccc(Cl)cc3-c3cn[nH]c3)cccc2c1 [Example 27, 5-(4-CHLORO-2-(1H-PYRAZOL-4-YL)PHENYL)-N-(1,2,4-THIADIAZOL-5-YL)NAPHTHALENE-2 SULFONAMIDE]	> 30000	–	–
50	–	–	O=S(=O)(Nc1ncns1)c1ccc2c(-c3ccc(Cl)cc3-c3ccncc3)cccc2c1 [Example 28]	> 30000	–	–
50	–	–	O=S(=O)(Nc1ncns1)c1ccc2c(-c3ccc(C(F)(F)F)cc3Cl)cccc2c1 [Example 29]	> 30000	–	–

IC50 (Nav 1.7 [1]; [3]) [nM]	IC50 (Nav 1.7 [1]; [5]) [nM]	IC50 (Nav 1.7 [2]) [nM]	Structure (SMILES)	IC50 (Nav 1.5; [4]) [nM]	IC50 (Nav 1.5) [nM]	IC50 (Nav 1.5; [6]) [nM]
170	–	–	NC(=O)c1cc(C(F)(F)F)ccc1-c1cccc2cc(S(=O)(=O)Nc3ncns3)ccc12 [Example 32]	> 30000	–	–
1540	–	–	O=S(=O)(Nc1ncns1)c1ccc2c(-c3ccc(Cl)cc3C(F)(F)F)cccc2c1 [Example 39]	7770	–	–
1970	–	–	O=S(=O)(Nc1ncns1)c1ccc2c(-c3ccc(Cl)cc3Cl)cccc2c1 [Example 40]	> 30000	–	–
270	–	–	Cn1nccc1-c1cc(C(F)(F)F)ccc1-c1cccc2cc(S(=O)(=O)Nc3nccs3)ccc12 [Example 47]	5820	–	–
30	–	–	O=S(=O)(Nc1ncns1)c1ccc2c(-c3ccc(C(F)(F)F)cc3Br)nccc2c1 [Example 50, 1-(2-BROMO-4-(TRIFLUOROMETHYL)PHENYL)-N-(1,2,4-THIADIAZOL-5-YL)ISOQUINOLINE-6-SULFONAMIDE]	> 30000	–	–
110	–	–	O=S(=O)(Nc1nccs1)c1ccc2c(-c3ccc(C(F)(F)F)cc3Cl)nccc2c1 [Example 51, 1-(2-CHLORO-4-(TRIFLUOROMETHYL)PHENYL)-N-(THIAZOL-2-YL)ISOQUINOLINE-6-SULFONAMIDE]	> 30000	–	–
70	–	–	O=S(=O)(Nc1ncns1)c1ccc2c(-c3ccc(C(F)(F)F)cc3-c3ccncc3)nccc2c1 [Example 53, 1-(2-(PYRIDIN-4-YL)-4-(TRIFLUOROMETHYL)PHENYL)-N-(1,2,4-THIADIAZOL-5-YL)ISOQUINOLINE-6-SULFONAMIDE]	> 30000	–	–
40	–	–	Cn1nccc1-c1cc(C(F)(F)F)ccc1-c1nccc2cc(S(=O)(=O)Nc3ncns3)ccc12 [Example 54, 1-(2-(1-METHYL-1H-PYRAZOL-5-YL)-4-(TRIFLUOROMETHYL)PHENYL)-N-(1,2,4-THIADIAZOL-5-YL)ISOQUINOLINE-6-SULFONAMIDE]	> 30000	–	–
10	–	–	O=S(=O)(Nc1ncns1)c1ccc2c(-c3ccc(C(F)(F)F)cc3-c3cn[nH]c3)nccc2c1 [Example 55, 1-(2-(1H-PYRAZOL-4-YL)-4-(TRIFLUOROMETHYL)PHENYL)-N-(1,2,4-THIADIAZOL-5-YL)ISOQUINOLINE-6-SULFONAMIDE]	> 30000	–	–
–	10	134	COc1cc(C(F)(F)F)ccc1-c1nccc2cc(S(=O)(=O)Nc3ncns3)ccc12 [Example 195, 1-(2-METHOXY-4-(TRIFLUOROMETHYL)PHENYL)-N-(1,2,4-THIADIAZOL-5-YL)ISOQUINOLINE-6-SULFONAMIDE]	–	–	> 30000
–	20	156	COc1cc(-c2cccc(F)c2)ccc1-c1nccc2cc(S(=O)(=O)Nc3ccncn3)ccc12 [Example 199, 1-(3′-FLUORO-3-METHOXY-[1,1′-BIPHENYL]-4-YL)-N-(PYRIMIDIN-4-YL)ISOQUINOLINE-6-SULFONAMIDE 2,2,2-TRIFLUOROACETATE]	–	–	> 30000
–	10	200	COc1cc(C(F)(F)F)ccc1-c1ncnc2cc(S(=O)(=O)Nc3nccs3)ccc12 [Example 261, 4-(2-methoxy-4-(trifluoromethyl)phenyl)-N-(thiazol-2-yl)quinazoline-7-sulfonamide]	–	–	> 30000
–	50	350	COc1cc(C(F)(F)F)ccc1-c1ccnc2cc(S(=O)(=O)Nc3nccs3)ccc12 [Example 276, 4-(2-METHOXY-4-(TRIFLUOROMETHYL)PHENYL)-N-(THIAZOL-2-YL)QUINOLINE-7-SULFONAMIDE]	–	–	12300
–	–	58	COc1cc(-c2cccc(C(F)(F)F)c2)ccc1-c1ncnc2cc(S(=O)(=O)Nc3ccncn3)ccc12 [Example 528, 4-(3-METHOXY-3′-(TRIFLUOROMETHYL)-[1,1′-BIPHENYL]-4-YL)-N-(PYRIMIDIN-4-YL)QUINAZOLINE-7-SULFONAMIDE]	–	–	> 30000
–	–	233	COc1cc(-c2ccc(F)c(F)c2)ccc1-c1ncnc2cc(S(=O)(=O)Nc3nncs3)ccc12 [Example 530, 4-(3′,4′-DIFLUORO-3-METHOXY-[1,1′-BIPHENYL]-4-YL)-N-(1,3,4-THIADIAZOL-2-YL)QUINAZOLINE-7-SULFONAMIDE]	–	–	> 30000
–	–	231	COc1cc(-c2cc(F)cc(F)c2)ccc1-c1ncnc2cc(S(=O)(=O)Nc3nncs3)ccc12 [Example 531, 4-(3′,5′-DIFLUORO-3-METHOXY-[1,1′-BIPHENYL]-4-YL)-N-(1,3,4-THIADIAZOL-2-YL)QUINAZOLINE-7-SULFONAMIDE]	–	–	> 30000

Structure (SMILES)	IC50 (Nav 1.7 [1]; [3]) [nM]	IC50 (Nav 1.7 [1]; [5]) [nM]	IC50 (Nav 1.7 [2]) [nM]	IC50 (Nav 1.5; [4]) [nM]	IC50 (Nav 1.5) [nM]	IC50 (Nav 1.5; [6]) [nM]
O=S(=O)(Nc1ncns1)c1ccc2c(-c3ccc(Cl)cc3C3=CCNCC3)cccc2c1 [Example 26]	20	–	–	–	> 30000	–
COc1cc(-c2cccc(F)c2)ccc1-c1ncnc2cc(S(=O)(=O)Nc3nncs3)ccc12 [Example 529, 4-(3′-FLUORO-3-METHOXY-[1,1′-BIPHENYL]-4-YL)-N-(1,3,4-THIADIAZOL-2-YL)QUINAZOLINE-7-SULFONAMIDE]	–	–	258	–	–	> 30000
Cc1cc(Cl)ccc1-c1ncnc2cc(S(=O)(=O)Nc3ncns3)ccc12 [Example 532]	–	–	996	–	–	> 30000
